Data as given in patent US8937039B2, “Peptide-based peroxidase inhibitors and methods of using same” (The Medical College of Wisconsin, Inc., priority 2009, dated 2015).
“Also recorded” adds a separate entry of the source. Residues, ends and D or L forms follow the SMILES beside them.

Key:
SCD mice [1] = assay: Vessel wall thickness of facialis arteries of treated SCD mice; type: in vivo, mouse; details: KYC three weeks; P=0.10
Description: Vessel Wall Thickness. After completing the vasodilatation studies, the pressurized vessels were maximally dilated by addition of papaverine (10^−4 mol/L, 4 min), and outside and inside diameters recorded. An index of wall thickness was calculated using the following formula; ([…]/2)/outside diameter, as previously described.

SCD mice [2] = assay: WBC counts in treated SCD mice (cytometry); type: in vivo, mouse; details: KYC-treated SCD mice
Description: […] vascular function in SCD mice. To determine whether inhibiting MPO improves vascular function and/or reduces inflammation in vivo, SCD mice were treated with KYC for three weeks. […] Such physiological and structural changes are consistent with immunofluorescent studies showing that chlorotyrosine and MPO levels are reduced in the aortas of KYC-treated SCD mice compared with non-treated SCD mice (FIG. 13). High WBC counts are indicative of on-going inflammation in SCD and predictive of future vaso-occlusive events. Accordingly, WBC levels were quantified in the SCD mice using standard cytometry assays.

MPO [3] = target: T1, MPO (Homo sapiens, UniProt P05164); assay: MPO-catalyzed HOCl production (taurine/TMB assay); type: biochemical; parameters: purchased Lee Biosolutions (St. Louis, Mo.)
T1 sequence (P05164 49-745): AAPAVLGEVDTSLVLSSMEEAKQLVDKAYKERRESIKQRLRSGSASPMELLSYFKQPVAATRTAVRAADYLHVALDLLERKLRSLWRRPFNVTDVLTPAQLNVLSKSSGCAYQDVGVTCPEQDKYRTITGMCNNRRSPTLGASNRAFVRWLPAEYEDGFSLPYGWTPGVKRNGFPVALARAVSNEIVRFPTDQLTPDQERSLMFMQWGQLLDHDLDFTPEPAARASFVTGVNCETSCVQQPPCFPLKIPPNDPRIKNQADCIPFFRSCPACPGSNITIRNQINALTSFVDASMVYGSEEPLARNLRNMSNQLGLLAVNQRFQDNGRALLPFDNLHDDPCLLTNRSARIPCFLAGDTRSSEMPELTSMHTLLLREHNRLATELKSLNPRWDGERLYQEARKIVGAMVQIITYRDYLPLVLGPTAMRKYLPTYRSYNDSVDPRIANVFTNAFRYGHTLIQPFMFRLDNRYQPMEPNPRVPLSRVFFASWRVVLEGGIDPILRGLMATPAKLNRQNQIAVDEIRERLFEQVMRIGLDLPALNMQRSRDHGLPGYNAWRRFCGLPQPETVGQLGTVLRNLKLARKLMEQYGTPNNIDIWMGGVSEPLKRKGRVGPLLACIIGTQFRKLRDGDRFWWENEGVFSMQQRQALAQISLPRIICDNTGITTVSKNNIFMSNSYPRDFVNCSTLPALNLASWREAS
Description: MPO-mediated HOCl Production. MPO (20 nM) was incubated with H2O2 (50 μM), NaCl (150 mM), taurine (5 mM) and increasing concentrations of KYC in phosphate buffer (100 mM, pH 7.4) which also contained diethylene triamine pentaacetic acid (DTPA, 100 μM) to prevent non-specific, divalent metal cation oxidation for 30 min. Reactions were halted by addition of catalase. Chlorotaurine was quantified using the 3,3-,5,5-tetramethylbenzidine (TMB) assay. Briefly, 400 μL of reaction solution was mixed with 100 μL of 2 mM TMB, 100 μM NaI containing 10% dimethylformamide (DMF) in 400 mM acetate buffer (pH 5.4). After 5 min, absorbance (650 nm) was recorded on a UV/Vis spectrophotometer (Agilent Model 8453).
MPO-catalyzed HOCl Production: MPO (20 nM) was incubated with H2O2 (50 μM), NaCl (150 mM), taurine (5 mM) and increasing concentrations of KYC in a phosphate buffer (100 mM, pH 7.4) containing diethylene triamine pentaacetic acid (DTPA, 100 μM) to prevent non-specific, divalent metal cation oxidation for 30 min. Reactions were halted by addition of catalase (2,000 units/mL). Chlorotaurine was quantified using the TMB assay (66). Briefly, 400 μL of reaction solution was mixed with 100 μL of 2 mM TMB, 100 μM NaI containing 10% dimethylformamide (DMF) in 400 mM acetate buffer (pH 5.4). After 5 min, absorbance (650 nm) was recorded on a UV/Vis spectrophotometer (Agilent Model 8453).

MPO [4] = target: T1, MPO; assay: MPO-mediated LDL malondialdehyde (MDA) formation; type: biochemical; parameters: purchased Lee Biosolutions (St. Louis, Mo.); details: increasing concentrations; 37° C., 4 h
Description: MPO-mediated LDL Malondialdehyde (MDA) Formation: Reaction mixtures contained LDL (0.5 mg/mL), NaNO2 (50 μM), H2O2 (50 μM), MPO (50 nM) and increasing concentrations of KYC in a phosphate buffer (100 mM, pH 7.4) containing DTPA (100 μM). After incubation at 37° C. for 4 h, the reactions were stopped by addition of catalase (2,000 units/mL). The formation of MDA was determined according to a published procedure. Briefly, incubation mixtures (containing 25 mM BHT) were adjusted to pH 1.5 and incubated at 60° C. for 80 min to hydrolyze the Schiff Bases formed from MDA and protein. The samples were mixed with 3-fold volume of N-methyl-2-phenylindole (13.4 mM in acetonitrile/methanol (3:1)). After centrifugation (13000 g, 5 min) 330 μL of the supernatants were mixed with 57.5 μL of concentrated HCl and incubated at 45° C. for another 60 min. Finally, after centrifugation (13000 g, 5 min), total MDA in the samples was determined from the absorbance at 586 nm using a UV-Vis spectrophotometer (Agilent Model 8453).

In the case of `CC(=O)N[C@@H](CCCCN)C(=O)N[C@@H](Cc1ccc(O)cc1)C(=O)N[C@@H](CS)C(N)=O` [KYC, N-acetyl Lysyltyrosylcysteine Amide] (Ac-Lys-Tyr-Cys-NH2), the “Vessel wall thickness (in words)” value (SCD mice [1]) is reported as “reduces vessel wall thickness”, the “Reduction of WBC counts (in words)” value (SCD mice [2]) is reported as “more than half” and the “Effect on MPO HOCl production at equimolar concentration (in words)” value (MPO [3]; 12.5 μM) is reported as “comparable to that of tryptophan; also recorded: significantly more effective”. The “MPO-dependent HOCl production at 25 μM (in words)” value (MPO [3]; 25 μM peptide) was “completely inhibited; also recorded: completely ablated”, the IC50 (MPO [3]; MPO 20 nM, H2O2 50 μM, NaCl 150 mM, taurine 5 mM, 30 min, read-out: IC50 for inhibition of MPO-catalyzed HOCl formation) was ~7 µM and the “MPO-mediated MDA formation in LDL (in words)” value (MPO [4]) was “dose-dependently inhibited”.
